Each compound was assayed on SU-DHL-4 cell line (assay: SU-DHL-4 cell proliferation assay (Cell Titer-Glo viability)). Details: Homo sapiens; cell viability IC50 activity level, DLBCL cell line SU-DHL-4, 120 hours post-treatment; read-out: SU-DHL-4 Act.
Assay type: cell-based
Description: SU-DHL-4 Cell Proliferation Assay.
The following is an example of an assay that can be used to determine the anti-proliferative activity of Isoindolinedione Compounds in a DLBCL cell line, for example, the SU-DHL-4 cell line (Deutsche Sammlung von Mikroorganismen and Zellkulturen GmbH [DSMZ]: catalogue number ACC-495) at 120 hours post-treatment. The seeding density for SU-DHL-4 can be optimized to ensure assay linearity in 1536-well plates.
Increasing concentrations of test compounds (0.5 nM to 10 μM) were spotted in a 20-point dilution fashion (unevenly spaced data points) via an acoustic dispenser (EDC ATS-100) into an empty 1536-well plate. The DMSO concentration was kept constant for a final assay concentration of 0.1% DMSO. Prior to testing, SU-DHL-4 cells were grown in RPMI-1640 (Roswell Park Memorial Institute—1640) medium with 10% FBS (fetal bovine serum: HyClone) and expanded in culture flasks to provide sufficient amounts of starting material. Cells were then diluted to 500 cells per well in a 5 μL volume, and added directly to the compound-spotted 1536-well plates. Cells were allowed to grow for 120 hours in 5% CO2 at 37° C. At the time when exposure of cells to compound began (to), initial viable cell number was assessed via Cell Titer-Glo® Luminescent Cell Viability Assay at a 1 vol:2 vol ratio according to manufacturer's instructions (Promega Corporation, Madison, Wis.) by quantifying the level of luminescence generated by adenosine-5′-triphosphate (ATP) present in viable cells. After 120 hours, cell viability of the treated cells was assessed via Cell Titer-Gb® and read for luminescence. All growth inhibition curves were processed and evaluated using Activity Base (IDBS, Alameda, Calif.). Cell viability IC50 values were calculated using a four parameter logistic model (sigmoidal dose-response model): y=(A+((B−A)/(1+((C/x)^D)))) wherein: A=YMin B=YMax C=EC50 D=Hill slope IC50=the concentration of the compound when Y=50% of DMSO control Y=cell viability measured as luminescence unit, and x=concentration of compound.

IC50	Compound
200 to 500 nM	CN(C)C(=O)c1ccc(N2CCN(Cc3ccc(CNc4cccc5c4C(=O)N(C4CCC(=O)NC4=O)C5=O)c(F)c3)CC2)cn1 (stereo not shown) [Cpd 140, 5-(4-(4-((2-(2,6-dioxopiperidin-3-yl)-1,3-dioxoisoindolin-4-ylamino)methyl)-3-fluorobenzyl)piperazin-1-yl)-N,N-dimethylpicolinamide]
501 to 750 nM	O=C1CCC(N2C(=O)c3cccc(NCc4ccc(CN5CCN(c6ccc(F)cc6F)CC5)cc4)c3C2=O)C(=O)N1 (stereo not shown) [Cpd 1, 4-(4-((4-(2,4-difluorophenyl)piperazin-1-yl)methyl)benzylamino)-2-(2,6-dioxopiperidin-3-yl)isoindoline-1,3-dione]
< 200 nM	NC(=O)c1cccc(N2CCN(Cc3ccc(CNc4cccc5c4C(=O)N(C4CCC(=O)NC4=O)C5=O)c(F)c3)CC2)n1 (stereo not shown) [Cpd 184, 6-(4-(4-((2-(2,6-dioxopiperidin-3-yl)-1,3-dioxoisoindolin-4-ylamino)methyl)-3-fluorobenzyl)piperazin-1-yl)picolinamide]
< 200 nM	Cc1cc(CNc2cccc3c2C(=O)N(C2CCC(=O)NC2=O)C3=O)ccc1CN1CCN(C2CCC2)CC1 (stereo not shown) [Cpd 70, 4-(4-((4-cyclobutylpiperazin-1-yl)methyl)-3-methylbenzylamino)-2-(2,6-dioxopiperidin-3-yl)isoindoline-1,3-dione]
< 200 nM	Cc1cc(CNc2cccc3c2C(=O)N(C2CCC(=O)NC2=O)C3=O)ccc1CN1CCN(c2ccc(C(N)=O)cn2)CC1 (stereo not shown) [Cpd 205, 6-(4-(4-((2-(2,6-dioxopiperidin-3-yl)-1,3-dioxoisoindolin-4-ylamino)methyl)-2-methylbenzyl)piperazin-1-yl)nicotinamide]

Second part, the compound before the results:

Compound	IC50
O=C1CCC(N2C(=O)c3cccc(NCc4ccc(CN5CCC(OC6CCC6)CC5)cc4)c3C2=O)C(=O)N1 (stereo not shown) [Cpd 126]	200 to 500 nM
CC1(C)CN(c2ccc(C#N)nc2)CCN1Cc1ccc(CNc2cccc3c2C(=O)N(C2CCC(=O)NC2=O)C3=O)cc1 (stereo not shown) [Cpd 85, 5-(4-(4-((2-(2,6-dioxopiperidin-3-yl)-1,3-dioxoisoindolin-4-ylamino)methyl)benzyl)-3,3-dimethylpiperazin-1-yl)picolinonitrile]	< 200 nM
CCCOC1CCN(Cc2ccc(CNc3cccc4c3C(=O)N(C3CCC(=O)NC3=O)C4=O)cc2)CC1 (stereo not shown) [Cpd 124, 2-(2,6-dioxopiperidin-3-yl)-4-(4-((4-propoxypiperidin-1-yl)methyl)benzylamino)isoindoline-1,3-dione]	501 to 750 nM
Cc1cc(CNc2cccc3c2C(=O)N(C2CCC(=O)NC2=O)C3=O)ccc1CN1CCC(C(F)(F)F)CC1 (stereo not shown) [Cpd 45, 2-(2,6-dioxopiperidin-3-yl)-4-(3-methyl-4-((4-(trifluoromethyl)piperidin-1-yl)methyl)benzylamino)isoindoline-1,3-dione]	< 200 nM
O=C1CCC(N2C(=O)c3cccc(NCc4ccc(CN5CCC(OC(F)(F)F)CC5)cc4)c3C2=O)C(=O)N1 (stereo not shown) [Cpd 123, 2-(2,6-dioxopiperidin-3-yl)-4-(4-((4-(trifluoromethoxy)piperidin-1-yl)methyl)benzylamino)isoindoline-1,3-dione]	200 to 500 nM
CC(C)C1CCN(Cc2ccc(CNc3cccc4c3C(=O)N(C3CCC(=O)NC3=O)C4=O)c(F)c2)CC1 (stereo not shown) [Cpd 103, 2-(2,6-dioxopiperidin-3-yl)-4-(2-fluoro-4-((4-isopropylpiperidin-1-yl)methyl)benzylamino)isoindoline-1,3-dione]	< 200 nM
O=C1CCC(N2C(=O)c3cccc(NCc4ccc(CN5CCN(c6nnc(C(F)(F)F)s6)CC5)cc4F)c3C2=O)C(=O)N1 (stereo not shown) [Cpd 177, 2-(2,6-dioxopiperidin-3-yl)-4-(2-fluoro-4-((4-(5-(trifluoromethyl)-1,3,4-thiadiazol-2-yl)piperazin-1-yl)methyl)benzylamino)isoindoline-1,3-dione]	< 200 nM
O=C1CCC(N2C(=O)c3cccc(NCc4ccc(CN5CC(c6ccccn6)C5)cc4F)c3C2=O)C(=O)N1 (stereo not shown) [Cpd 165, 2-(2,6-dioxopiperidin-3-yl)-4-(2-fluoro-4-((3-(pyridin-2-yl)azetidin-1-yl)methyl)benzylamino)isoindoline-1,3-dione]	< 200 nM

Reference: US11358952B2, “Substituted 4-aminoisoindoline-1,3-dione compounds, compositions thereof, and methods of treatment therewith” (Celgene Corporation, priority 2018, dated 2022)
